Measurements from patent publication US20080274883A1, “Fungicidal Mixtures” (BASF AKTIENGESELLSCHAFT, priority 2004, published 2008).

Tests used:
Phytophthora infestans = type: in vivo, Phytophthora infestans on potted tomato plants; details: 1 ppm; protective spray on tomato leaves, infested next day, rated after 6 days; efficiency by Abbot's formula vs untreated control (90% infestation)
[1] = test system: Erysiphe [syn. Blumeria] graminis form a specialis. tritici; experiment: Efficacy against wheat mildew caused by Erysiphe [syn. Blumeria] graminis forma specialis tritici; type: in vivo; details: wheat seedlings sprayed, dusted with spores 24 hours later, rated after 7 days, untreated control 90% infestation

Compound | Observed action (%) (Phytophthora infestans) | Observed action (%) ([1]; 4 ppm) | Observed action (%) ([1]; 16 ppm)
COc1ccc(C(=CC(=O)N2CCOCC2)c2ccc(Cl)cc2)cc1OC [dimethomorph (II), 3-(4-chlorophenyl)-3-(3,4-dimethoxyphenyl)-1-morpholin-4-ylpropenone] | 22 | 0 | –
CO/C=C(/C(=O)OC)c1ccccc1CO/N=C(C)/C=C/c1ccc(Cl)cc1 [enestrobin (I), methyl 2-(2-[3-(4-chlorophenyl)-1-methyl-allylidenaminooxymethyl]phenyl)-3-methoxyacrylate] | 0 | – | 33
COc1ccc(C(=CC(=O)N2CCOCC2)c2ccc(F)cc2)cc1OC [flumorph (IIA), 4-[3-(3,4-dimethoxyphenyl)-3-(4-fluorophenyl)-1-oxo-2-propenyl]morpholine] | – | 0 | –
